ChEMBL document CHEMBL1671626, “In vitro profiling of ceftaroline against a collection of recent bacterial clinical isolates from across the United States” (2008)
In brackets after ≈: the same amount, converted by molar mass.

How the values were obtained:
Type in all cases: functional
[1] = test system: Providencia sp.; assay: Antibacterial activity against ceftazidime-susceptible Providencia sp. by CLSI M7-A7 broth microdilution method
[2] = test system: Staphylococcus aureus; assay: Antibacterial activity against coagulase-negative and oxacillin-resistant Staphylococcus aureus assessed as resistant isolates by CLSI M7-A7 broth microdilution method
[3] = test system: Staphylococcus aureus; assay: Antibacterial activity against methicillin-susceptible Staphylococcus aureus assessed as susceptible isolates by CLSI M7-A7 broth microdilution method
[4] = test system: Acinetobacter; assay: Antibacterial activity against imipenem-susceptible Acinetobacter assessed as resistant isolates by CLSI M7-A7 broth microdilution method
[5] = test system: Staphylococcus aureus; assay: Antibacterial activity against coagulase-negative and oxacillin-susceptible Staphylococcus aureus by CLSI M7-A7 broth microdilution method
[6] = test system: Proteus mirabilis; assay: Antibacterial activity against ceftazidime-susceptible Proteus mirabilis assessed as susceptible isolates by CLSI M7-A7 broth microdilution method
[7] = test system: Morganella morganii; assay: Antibacterial activity against ceftazidime-susceptible Morganella morganii assessed as susceptible isolates by CLSI M7-A7 broth microdilution method
[8] = test system: Citrobacter freundii; assay: Antibacterial activity against ceftazidime-susceptible Citrobacter freundii assessed as susceptible isolates by CLSI M7-A7 broth microdilution method
[9] = test system: Enterobacter cloacae; assay: Antibacterial activity against ceftazidime-nonsusceptible Enterobacter cloacae by CLSI M7-A7 broth microdilution method
[10] = test system: Streptococcus pyogenes; assay: Antibacterial activity against erythromycin-susceptible Streptococcus pyogenes by CLSI M7-A7 broth microdilution method
[11] = test system: Serratia marcescens; assay: Antibacterial activity against ceftazidime-susceptible Serratia marcescens assessed as resistant isolates by CLSI M7-A7 broth microdilution method
[12] = test system: Serratia marcescens; assay: Antibacterial activity against ceftazidime-susceptible Serratia marcescens assessed as susceptible isolates by CLSI M7-A7 broth microdilution method
[13] = test system: Moraxella catarrhalis; assay: Antibacterial activity against beta lactamase-positive Moraxella catarrhalis assessed as susceptible isolates by CLSI M7-A7 broth microdilution method
[14] = test system: Enterobacter cloacae; assay: Antibacterial activity against ceftazidime-nonsusceptible Enterobacter cloacae assessed as susceptible isolates by CLSI M7-A7 broth microdilution method
[15] = test system: Klebsiella pneumoniae; assay: Antibacterial activity against ceftazidime-susceptible Klebsiella pneumoniae by CLSI M7-A7 broth microdilution method
[16] = test system: Enterococcus faecalis; assay: Antibacterial activity against vancomycin-resistant Enterococcus faecalis by CLSI M7-A7 broth microdilution method
[17] = test system: Morganella morganii; assay: Antibacterial activity against ceftazidime-susceptible Morganella morganii by CLSI M7-A7 broth microdilution method
[18] = test system: Citrobacter freundii; assay: Antibacterial activity against ceftazidime-nonsusceptible Citrobacter freundii assessed as resistant isolates by CLSI M7-A7 broth microdilution method
[19] = test system: Escherichia coli; assay: Antibacterial activity against ceftazidime-susceptible Escherichia coli by CLSI M7-A7 broth microdilution method
[20] = test system: Pasteurella multocida; assay: Antibacterial activity against Pasteurella multocida by CLSI M7-A7 broth microdilution method
[21] = test system: Enterobacter cloacae; assay: Antibacterial activity against ceftazidime-susceptible Enterobacter cloacae by CLSI M7-A7 broth microdilution method
[22] = test system: Staphylococcus aureus; assay: Antibacterial activity against coagulase-negative and oxacillin-susceptible Staphylococcus aureus assessed as susceptible isolates by CLSI M7-A7 broth microdilution method
[23] = test system: Citrobacter freundii; assay: Antibacterial activity against ceftazidime-susceptible Citrobacter freundii by CLSI M7-A7 broth microdilution method
[24] = test system: Staphylococcus aureus; assay: Antibacterial activity against methicillin-resistant Staphylococcus aureus by CLSI M7-A7 broth microdilution method
[25] = test system: Morganella morganii; assay: Antibacterial activity against ceftazidime-susceptible Morganella morganii assessed as resistant isolates by CLSI M7-A7 broth microdilution method
[26] = test system: Staphylococcus aureus; assay: Antibacterial activity against methicillin-resistant Staphylococcus aureus assessed as susceptible isolates by CLSI M7-A7 broth microdilution method
[27] = test system: Enterococcus faecium; assay: Antibacterial activity against vancomycin-resistant Enterococcus faecium by CLSI M7-A7 broth microdilution method
[28] = test system: Enterococcus faecalis; assay: Antibacterial activity against vancomycin-susceptible Enterococcus faecalis by CLSI M7-A7 broth microdilution method
[29] = test system: Klebsiella pneumoniae; assay: Antibacterial activity against ceftazidime-nonsusceptible Klebsiella pneumoniae assessed as resistant isolates by CLSI M7-A7 broth microdilution method
[30] = test system: Klebsiella pneumoniae; assay: Antibacterial activity against ceftazidime-nonsusceptible Klebsiella pneumoniae assessed as susceptible isolates by CLSI M7-A7 broth microdilution method
[31] = test system: Escherichia coli; assay: Antibacterial activity against ceftazidime-nonsusceptible Escherichia coli assessed as susceptible isolates by CLSI M7-A7 broth microdilution method
[32] = test system: Streptococcus pneumoniae; assay: Antibacterial activity against penicillin-susceptible Streptococcus pneumoniae by CLSI M7-A7 broth microdilution method
[33] = test system: Serratia marcescens; assay: Antibacterial activity against ceftazidime-susceptible Serratia marcescens by CLSI M7-A7 broth microdilution method
[34] = test system: Enterobacteriaceae; assay: Antibacterial activity against ceftazidime-nonsusceptible Enterobacteriaceae by CLSI M7-A7 broth microdilution method
[35] = test system: Citrobacter freundii; assay: Antibacterial activity against ceftazidime-susceptible Citrobacter freundii assessed as resistant isolates by CLSI M7-A7 broth microdilution method

For `CC(C)(O/N=C(\C(=O)N[C@@H]1C(=O)N2C(C(=O)[O-])=C(C[n+]3ccccc3)CS[C@H]12)c1csc(N)n1)C(=O)O` [CEFTAZIDIME], the MIC50 [1] was 0.25 µg/mL (≈ 0.457 µM), the MIC90 [1] was 4 µg/mL (≈ 7.32 µM) and the Activity [2] was 66.2%. The Activity [3] was 92%, the Activity [4] was 31.9% and the MIC50 [5] was 4 µg/mL (≈ 7.32 µM). The MIC90 [5] was 8 µg/mL (≈ 14.6 µM), the Activity [6] was 100% and the Activity [7] was 100%. The Activity [8] was 100%, the MIC50 [9] was greater than 32 µg/mL and the MIC90 [9] was greater than 32 µg/mL. For the same compound, the MIC [10] was no more than 1 µg/mL, the MIC50 [10] was no more than 1 µg/mL and the MIC90 [10] was no more than 1 µg/mL. For the same compound, the Activity [11] was 0%, the Activity [12] was 100% and the Activity [13] was 100%. The Activity [14] was 0%, the MIC50 [15] was 0.12 µg/mL (≈ 0.22 µM) and the MIC90 [15] was 0.25 µg/mL (≈ 0.457 µM). The MIC50 [16] was greater than 32 µg/mL, the MIC90 [16] was greater than 32 µg/mL and the MIC50 [17] was 0.06 µg/mL (≈ 0.11 µM). For the same compound, the MIC90 [17] was 4 µg/mL (≈ 7.32 µM), the Activity [18] was 97% and the MIC50 [19] was 0.12 µg/mL (≈ 0.22 µM). It also gave an MIC90 [19] of 0.25 µg/mL (≈ 0.457 µM), an MIC [20] of no more than 1 µg/mL and an MIC50 [20] of no more than 1 µg/mL. The MIC90 [20] was no more than 1 µg/mL, the MIC50 [21] was 0.25 µg/mL (≈ 0.457 µM) and the MIC90 [21] was 1 µg/mL (≈ 1.83 µM). It also gave an Activity [22] of 93.5%, an MIC50 [23] of 0.25 µg/mL (≈ 0.457 µM) and an MIC90 [23] of 1 µg/mL (≈ 1.83 µM). For the same compound, the MIC50 [24] was 32 µg/mL (≈ 58.5 µM), the MIC90 [24] was greater than 32 µg/mL and the Activity [25] was 0%. For the same compound, the Activity [26] was 11%, the MIC [27] was greater than 32 µg/mL and the MIC50 [27] was greater than 32 µg/mL. For the same compound, the MIC90 [27] was greater than 32 µg/mL, the MIC [28] was greater than 32 µg/mL and the MIC50 [28] was greater than 32 µg/mL. The MIC90 [28] was greater than 32 µg/mL, the Activity [29] was 98.5% and the Activity [30] was 0%. The Activity [31] was 0%, the MIC [32] was no more than 1 µg/mL and the MIC50 [32] was no more than 1 µg/mL. For the same compound, the MIC90 [32] was no more than 1 µg/mL, the MIC50 [33] was 0.12 µg/mL (≈ 0.22 µM) and the MIC90 [33] was 1 µg/mL (≈ 1.83 µM). The MIC50 [34] was greater than 32 µg/mL, the MIC90 [34] was greater than 32 µg/mL and the Activity [35] was 0%.
